Test results from ChEMBL document CHEMBL5346950, “Development of Biaryl-Containing Aldo-Keto Reductase 1C3 (AKR1C3) Inhibitors for Reversing AKR1C3-Mediated Drug Resistance in Cancer Treatment” (J Med Chem, 2023).

How the values were obtained:
[1] = Toxicity in BALB/c nude mouse xenografted with human MCF7 cells expressing AKR1C3 assessed as histopathological changes in kidney at 10 mg/kg, po administered every 2 days for 3 weeks in presence of doxorubicin by H and E staining based analysis; type: organism-based; conditions: in vivo, 504 h
[2] = system: MCF7; test: Synergistic antiproliferative activity against human MCF7 cells overexpressing AKR1C3 assessed as combination index at 10 uM incubated for 72 hrs in presence of doxorubicin at 50 nM by Chou-Talalay method; type: functional
[3] = system: MCF7; test: Synergistic antiproliferative activity against human MCF7 cells overexpressing AKR1C3 assessed as dose reduction index for doxorubicin at 10 uM incubated for 72 hrs in presence of doxorubicin at 200 nM by Chou-Talalay method; type: functional
[4] = Metabolic stability in liver microsomes (unknown origin) assessed as clearance; type: ADME, Microsome; conditions: read-out: CLH
[5] = Toxicity in BALB/c nude mouse xenografted with human MCF7 cells expressing AKR1C3 assessed as histopathological changes in spleen at 10 mg/kg, po administered every 2 days for 3 weeks in presence of doxorubicin by H and E staining based analysis; type: organism-based; conditions: in vivo, 504 h
[6] = system: MCF7; test: Synergistic antiproliferative activity against human MCF7 cells overexpressing AKR1C3 assessed as dose reduction index for doxorubicin at 50 uM incubated for 72 hrs in presence of doxorubicin at 50 nM by Chou-Talalay method; type: functional
[7] = system: MCF7; test: Synergistic antiproliferative activity against human MCF7 cells overexpressing AKR1C3 assessed as dose reduction index for doxorubicin at 50 uM incubated for 72 hrs in presence of doxorubicin at 20 nM by Chou-Talalay method; type: functional
[8] = molecular target: Aldo-keto reductase family 1 member B1 (Homo sapiens, UniProt P15121); test: Inhibition of AKR1B1 (unknown origin) transfected in Escherichia coli BL21 (DE3) pLysS competent cells using pyridine-3-aldehyde as substrate assessed as inhibition of NADP+ dependent substrate oxidation incubated for 10 mins
[9] = Toxicity in BALB/c nude mouse xenografted with human MCF7 cells expressing AKR1C3 assessed as histopathological changes in heart at 10 mg/kg, po administered every 2 days for 3 weeks in presence of doxorubicin by H and E staining based analysis; type: organism-based; conditions: in vivo, 504 h
[10] = system: MCF7; test: Synergistic antiproliferative activity against human MCF7 cells overexpressing AKR1C3 assessed as combination index at 25 uM incubated for 72 hrs in presence of doxorubicin at 50 nM by Chou-Talalay method; type: functional
[11] = system: MCF7; test: Synergistic antiproliferative activity against human MCF7 cells overexpressing AKR1C3 assessed as dose reduction index for doxorubicin at 25 uM incubated for 72 hrs in presence of doxorubicin at 200 nM by Chou-Talalay method; type: functional
[12] = MRT (0 to infinity) in Sprague-Dawley rat at 10 mg/kg, IG measured for 5760 mins by LC-MS/MS analysis; type: ADME, organism-based; conditions: in vivo, po
[13] = AUC (0 to infinity) in Sprague-Dawley rat at 10 mg/kg, IG measured for 5760 mins by LC-MS/MS analysis; type: ADME, organism-based; parameters: dose 10 mg/kg, time 5760 min, route ig; conditions: in vivo, po, 96 h
[14] = molecular target: T1, Aldo-keto reductase family 1 member C2 (Homo sapiens, UniProt P52895); test: Inhibition of human recombinant AKR1C2 transfected in Escherichia coli BL21 (DE3) pLysS competent cells using S-tetralol as substrate assessed as inhibition of NADP+ dependent substrate oxidation incubated for 10 mins by fluorescence microplate reader assay
T1 sequence (P52895 whole entry): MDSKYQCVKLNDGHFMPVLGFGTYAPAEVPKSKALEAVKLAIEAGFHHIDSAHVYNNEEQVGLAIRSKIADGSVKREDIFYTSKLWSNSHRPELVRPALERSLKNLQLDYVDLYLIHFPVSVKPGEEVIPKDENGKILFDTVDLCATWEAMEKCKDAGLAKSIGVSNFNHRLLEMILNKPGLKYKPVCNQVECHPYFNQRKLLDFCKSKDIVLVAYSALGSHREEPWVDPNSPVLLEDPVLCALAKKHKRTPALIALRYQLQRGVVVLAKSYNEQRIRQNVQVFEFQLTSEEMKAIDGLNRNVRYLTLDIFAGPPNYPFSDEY

[15] = system: MCF7; test: Synergistic antiproliferative activity against human MCF7 cells overexpressing AKR1C3 assessed as dose reduction index for doxorubicin at 10 uM incubated for 72 hrs in presence of doxorubicin at 50 nM by Chou-Talalay method; type: functional
[16] = system: MCF7; test: Synergistic antiproliferative activity against human MCF7 cells overexpressing AKR1C3 assessed as combination index at 25 uM incubated for 72 hrs in presence of doxorubicin at 100 nM by Chou-Talalay method; type: functional
[17] = system: MCF7; test: Synergistic antiproliferative activity against human MCF7 cells overexpressing AKR1C3 assessed as dose reduction index for doxorubicin at 10 uM incubated for 72 hrs in presence of doxorubicin at 100 nM by Chou-Talalay method; type: functional
[18] = Bioavailability in Sprague-Dawley rat at 10 mg/kg, IG measured for 5760 mins by LC-MS/MS analysis; type: ADME, organism-based; conditions: in vivo, po
[19] = AUC (0 to t) in Sprague-Dawley rat at 2 mg/kg, iv measured for 5760 mins by LC-MS/MS analysis; type: ADME, organism-based; parameters: dose 2 mg/kg, time 5760 min, route iv; conditions: in vivo
[20] = Tmax in Sprague-Dawley rat at 10 mg/kg, IG measured for 5760 mins by LC-MS/MS analysis; type: ADME, organism-based; conditions: in vivo, po
[21] = system: MCF7; test: Antiproliferative activity against human MCF7 cells transfected with AKR1C3 assessed as reduction in cell viability at 100 uM incubated for 72 hrs by MTT assay relative to control; type: functional
[22] = Toxicity in BALB/c nude mouse xenografted with human MCF7 cells expressing AKR1C3 assessed as histopathological changes in heart at 10 mg/kg, po administered every 2 days for 3 weeks by H and E staining based analysis; type: organism-based; conditions: in vivo, 504 h
[23] = system: MCF7; test: Antiproliferative activity against human MCF7 cells overexpressing AKR1C3 assessed as cell survival rate at 50 uM incubated for 72 hrs by MTT assay relative to control; type: functional
[24] = Toxicity in BALB/c nude mouse xenografted with human MCF7 cells expressing AKR1C3 assessed as reduction in body weight at 10 mg/kg, po administered every 2 days for 3 weeks and measured every 3 days; type: organism-based; conditions: in vivo, 504 h
[25] = system: MCF7; test: Synergistic antiproliferative activity against human MCF7 cells overexpressing AKR1C3 assessed as combination index at 25 uM incubated for 72 hrs in presence of doxorubicin at 20 nM by Chou-Talalay method; type: functional
[26] = Cmax in Sprague-Dawley rat at 2 mg/kg, iv measured for 5760 mins by LC-MS/MS analysis; type: ADME, organism-based; parameters: dose 2 mg/kg, time 5760 min, route iv; conditions: in vivo
[27] = Toxicity in BALB/c nude mouse xenografted with human MCF7 cells expressing AKR1C3 assessed as reduction in body weight at 10 mg/kg, po administered every 2 days for 3 weeks in presence of doxorubicin and measured every 3 days; type: organism-based; conditions: in vivo, 504 h
[28] = Octanol-water partition coefficient, logP of the compound; type: physicochemical
[29] = Toxicity in BALB/c nude mouse xenografted with human MCF7 cells expressing AKR1C3 assessed as histopathological changes in liver at 10 mg/kg, po administered every 2 days for 3 weeks by H and E staining based analysis; type: organism-based; conditions: in vivo, 504 h
[30] = Metabolic stability in liver microsomes (unknown origin) assessed as half life; type: ADME, Microsome
[31] = AUC (0 to t) in Sprague-Dawley rat at 10 mg/kg, IG measured for 5760 mins by LC-MS/MS analysis; type: ADME, organism-based; parameters: time 5760 min, dose 10 mg/kg, route ig; conditions: in vivo, po

With `O=C(O)C1(c2ccc(-c3cc(Cl)cc(Cl)c3)c(F)c2)CC1` the Activity [1] was “Non-Toxic”, the CI [2] was 0.285 and the Activity_index [3] was 3.821. For the same compound, the CLint scaled [4] was 4.17 mL/min/kg, the Activity [5] was “Non-Toxic” and the Activity_index [6] was 22.152. For the same compound, the Activity_index [7] was 47.168, the IC50 [8] was over 10 µM and the Activity [9] was “Non-Toxic”. For the same compound, the CI [10] was 0.277, the Activity_index [11] was 5.636 and the MRT inf [12] was 36.6 h. It also gave an AUC [13] of 1592.21 ng·h/mL, an IC50 [14] of 1.53 µM and an Activity_index [15] of 7.165. It also gave a CI [16] of 0.351, an Activity_index [17] of 4.423 and a bioavailability [18] of 53.7%. The AUC(0-t) at 96 h [19] was 552 ng·h/mL, the Tmax [20] was 10 h and the Activity [21] was about 37%. The Activity [22] was “Non-Toxic”, the Survival [23] was over 80% and the Activity [24] was “Non-Toxic”. For the same compound, the CI [25] was 0.276, the Cmax [26] was 24500 ng/mL and the Activity [27] was “Non-Toxic”. For the same compound, the logP [28] was 1, the Activity [29] was “Non-Toxic” and the half-life [30] was 6.94 h. The AUC(0-t) at 96 h [31] was 1480 ng·h/mL.
